{"source": "PubChem BioAssay (NCI)", "assay_in_all_cases": "NCI tumour cell line growth inhibition, 48 h", "key": {"SNB-75 CNS": {"tested_on": "SNB-75 CNS"}, "HOP-62 NSCLC": {"tested_on": "HOP-62 NSCLC"}, "RPMI-8226 leukemia": {"tested_on": "RPMI-8226 leukemia"}, "T-47D breast": {"tested_on": "T-47D breast"}, "A549 NSCLC": {"tested_on": "A549 NSCLC"}, "LOX IMVI melanoma": {"tested_on": "LOX IMVI melanoma"}, "HOP-92 NSCLC": {"tested_on": "HOP-92 NSCLC"}, "MALME-3M melanoma": {"tested_on": "MALME-3M melanoma"}, "SR leukemia": {"tested_on": "SR leukemia"}, "UO-31 renal": {"tested_on": "UO-31 renal"}, "NCI-H226 lung": {"tested_on": "NCI-H226 lung"}, "K-562 leukemia": {"tested_on": "K-562 leukemia"}, "HT29 colon": {"tested_on": "HT29 colon"}, "MOLT-4 leukemia": {"tested_on": "MOLT-4 leukemia"}, "SW-620 colon": {"tested_on": "SW-620 colon"}, "SF-268 CNS": {"tested_on": "SF-268 CNS"}, "ACHN renal": {"tested_on": "ACHN renal"}, "NCI/ADR-RES ovarian": {"tested_on": "NCI/ADR-RES ovarian"}, "SN12C renal": {"tested_on": "SN12C renal"}, "MCF7 breast": {"tested_on": "MCF7 breast"}, "HCT-15 colon": {"tested_on": "HCT-15 colon"}, "OVCAR-3 ovarian": {"tested_on": "OVCAR-3 ovarian"}, "TK-10 renal": {"tested_on": "TK-10 renal"}, "SK-MEL-28 melanoma": {"tested_on": "SK-MEL-28 melanoma"}, "HCC-2998 colon": {"tested_on": "HCC-2998 colon"}, "DU-145 prostate": {"tested_on": "DU-145 prostate"}, "SNB-19 CNS": {"tested_on": "SNB-19 CNS"}, "OVCAR-4 ovarian": {"tested_on": "OVCAR-4 ovarian"}}, "note": "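The compound was tested at five concentrations on cells cultured in 96-well plates, with a 48-hour exposure period. GI50 = concentration required for 50% inhibition of growth. Definition used: TGI = concentration required for complete inhibition of growth.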"}
{"smiles": "CO[C@H]1/C=C/O[C@@]2(C)Oc3c(C)c(O)c4c(c3C2=O)C(=O)C(/C=N/N(c2ccccc2)c2ccccc2)=C(NC(=O)/C(C)=C\\C=C\\[C@H](C)[C@H](O)[C@@H](C)[C@@H](O)[C@@H](C)[C@H](OC(C)=O)[C@@H]1C)C4=O", "values": [{"measurement": "GI50", "setting": "SNB-75 CNS", "value": 1380, "unit": "nM"}, {"measurement": "TGI", "setting": "SNB-75 CNS", "value": 2720, "unit": "nM"}, {"measurement": "GI50", "setting": "HOP-62 NSCLC", "value": 1710, "unit": "nM"}, {"measurement": "TGI", "setting": "HOP-62 NSCLC", "value": 3170, "unit": "nM"}, {"measurement": "GI50", "setting": "RPMI-8226 leukemia", "value": 1430, "unit": "nM"}, {"measurement": "TGI", "setting": "RPMI-8226 leukemia", "value": 4310, "unit": "nM"}, {"measurement": "GI50", "setting": "T-47D breast", "value": 1840, "unit": "nM"}, {"measurement": "TGI", "setting": "T-47D breast", "value": 3850, "unit": "nM"}, {"measurement": "GI50", "setting": "A549 NSCLC", "value": 1690, "unit": "nM"}, {"measurement": "TGI", "setting": "A549 NSCLC", "value": 3290, "unit": "nM"}, {"measurement": "GI50", "setting": "LOX IMVI melanoma", "value": 1950, "unit": "nM"}, {"measurement": "TGI", "setting": "LOX IMVI melanoma", "value": 3790, "unit": "nM"}, {"measurement": "GI50", "setting": "HOP-92 NSCLC", "value": 1880, "unit": "nM"}, {"measurement": "TGI", "setting": "HOP-92 NSCLC", "value": 3520, "unit": "nM"}, {"measurement": "GI50", "setting": "MALME-3M melanoma", "value": 1890, "unit": "nM"}, {"measurement": "TGI", "setting": "MALME-3M melanoma", "value": 3590, "unit": "nM"}, {"measurement": "GI50", "setting": "SR leukemia", "value": 2430, "unit": "nM"}, {"measurement": "TGI", "setting": "SR leukemia", "value": 5770, "unit": "nM"}, {"measurement": "GI50", "setting": "UO-31 renal", "value": 1650, "unit": "nM"}, {"measurement": "TGI", "setting": "UO-31 renal", "value": 3210, "unit": "nM"}, {"measurement": "GI50", "setting": "NCI-H226 lung", "value": 1970, "unit": "nM"}, {"measurement": "TGI", "setting": "NCI-H226 lung", "value": 3980, "unit": "nM"}, {"measurement": "GI50", "setting": "K-562 leukemia", "value": 2690, "unit": "nM"}, {"measurement": "TGI", "setting": "K-562 leukemia", "value": 9360, "unit": "nM"}, {"measurement": "GI50", "setting": "HT29 colon", "value": 1930, "unit": "nM"}, {"measurement": "TGI", "setting": "HT29 colon", "value": 3840, "unit": "nM"}, {"measurement": "GI50", "setting": "MOLT-4 leukemia", "value": 1850, "unit": "nM"}, {"measurement": "TGI", "setting": "MOLT-4 leukemia", "value": 6070, "unit": "nM"}, {"measurement": "GI50", "setting": "SW-620 colon", "value": 1830, "unit": "nM"}, {"measurement": "TGI", "setting": "SW-620 colon", "value": 3610, "unit": "nM"}, {"measurement": "GI50", "setting": "SF-268 CNS", "value": 1790, "unit": "nM"}, {"measurement": "TGI", "setting": "SF-268 CNS", "value": 3370, "unit": "nM"}, {"measurement": "GI50", "setting": "ACHN renal", "value": 1740, "unit": "nM"}, {"measurement": "TGI", "setting": "ACHN renal", "value": 3280, "unit": "nM"}, {"measurement": "GI50", "setting": "NCI/ADR-RES ovarian", "value": 2400, "unit": "nM"}, {"measurement": "TGI", "setting": "NCI/ADR-RES ovarian", "value": 5310, "unit": "nM"}, {"measurement": "GI50", "setting": "SN12C renal", "value": 1820, "unit": "nM"}, {"measurement": "TGI", "setting": "SN12C renal", "value": 3330, "unit": "nM"}, {"measurement": "GI50", "setting": "MCF7 breast", "value": 1950, "unit": "nM"}, {"measurement": "TGI", "setting": "MCF7 breast", "value": 4230, "unit": "nM"}, {"measurement": "GI50", "setting": "HCT-15 colon", "value": 1630, "unit": "nM"}, {"measurement": "TGI", "setting": "HCT-15 colon", "value": 3400, "unit": "nM"}, {"measurement": "GI50", "setting": "OVCAR-3 ovarian", "value": 1840, "unit": "nM"}, {"measurement": "TGI", "setting": "OVCAR-3 ovarian", "value": 3340, "unit": "nM"}, {"measurement": "GI50", "setting": "TK-10 renal", "value": 1870, "unit": "nM"}, {"measurement": "TGI", "setting": "TK-10 renal", "value": 3550, "unit": "nM"}, {"measurement": "GI50", "setting": "SK-MEL-28 melanoma", "value": 1710, "unit": "nM"}, {"measurement": "TGI", "setting": "SK-MEL-28 melanoma", "value": 3360, "unit": "nM"}, {"measurement": "GI50", "setting": "HCC-2998 colon", "value": 2070, "unit": "nM"}, {"measurement": "TGI", "setting": "HCC-2998 colon", "value": 4080, "unit": "nM"}, {"measurement": "GI50", "setting": "DU-145 prostate", "value": 1930, "unit": "nM"}, {"measurement": "TGI", "setting": "DU-145 prostate", "value": 3510, "unit": "nM"}, {"measurement": "GI50", "setting": "SNB-19 CNS", "value": 1710, "unit": "nM"}, {"measurement": "TGI", "setting": "SNB-19 CNS", "value": 3270, "unit": "nM"}, {"measurement": "GI50", "setting": "OVCAR-4 ovarian", "value": 1650, "unit": "nM"}, {"measurement": "TGI", "setting": "OVCAR-4 ovarian", "value": 3150, "unit": "nM"}]}
